Assays:
[1] = biological target: T1, RARγ (Homo sapiens, UniProt P13631); assay: chimeric receptor transactivation assay, RARγ; format: cell-based; conditions: read-out: RAR Trans. EC50 γ
T1 sequence (P13631 185-419 limits assumed): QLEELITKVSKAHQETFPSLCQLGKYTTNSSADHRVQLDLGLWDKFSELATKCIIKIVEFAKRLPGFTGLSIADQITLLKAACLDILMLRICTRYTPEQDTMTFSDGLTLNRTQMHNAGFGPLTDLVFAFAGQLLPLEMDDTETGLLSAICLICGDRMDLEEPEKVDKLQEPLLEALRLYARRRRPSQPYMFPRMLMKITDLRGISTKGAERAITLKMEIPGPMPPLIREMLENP
Source text: Specifically, one such assay is a chimeric receptor transactivation assay which tests for agonist-like activity in the R RAPE and RAR7 receptor subtypes, and which is based on work published by Feigner, P. L. and Holm, M (1989) Focus, 112 is described in detail in U.S. Pat. No. 5,455,265. The specification of U.S. Pat. No. 5,455,265 is hereby expressly incorporated by reference. A holoreceptor transactivation assay and a ligand binding assay which measure the antagonist/agonist like activity of the compounds of the invention, or their ability to bind to the several retinoid receptor subtypes, respectively, are described in published PCT Application No. WO WO93/11755 (particularly on pages 30-33 and 37-41) published on Jun. 24, 1993, the specification of which is also incorporated herein by reference. A detailed experimental procedure for holoreceptor transactivations has been described by Heyman et al. Cell 68, 397-406, (1992); Allegretto et al. J. Biol. Chem. 268, 26625-26633, and Mangelsdorf et al. The Retinoids: Biology, Chemistry and Medicine, pp 319-349, Raven Press Ltd., New York, which are expressly incorporated herein by reference. The results obtained in this assay are expressed in EC50 numbers, as they are also in the chimeric receptor transactivation assay. The results of the ligand binding assay are expressed in Ki numbers. […]
Efficacy in a transactivation assay is expressed as a percentage of the maximum potency attained by the compound compared to a standard which, in this case, is the compound named (2E,4E,1′S,2′S)-3-methyl-5-[2′-methyl-2′-(5,5,8,8-tetramethyl-5,6,7,8-tetrahydro-naphthalen-2-yl)-cyclopropyl]-penta-2,4-dienoic acid. […]
(§1) Generally speaking, in the tables disclosing the results of transactivation and binding assays the numbers in parentheses indicate efficacy as a percentage compared to the standard compound, (2E,4E,1′S,2′S)-3-methyl-5-[2′-methyl-2′-(5,5,8,8-tetramethyl-5,6,7,8-tetrahydro-naphthalen-2-yl)cyclopropyl]-penta-2,4-dienoic acid and the other numbers indicate the measured EC50 and K; in nanomolar concentration.

[2] = biological target: T2, RARβ (Homo sapiens, UniProt P10826); assay: chimeric receptor transactivation assay, RARβ; format: cell-based; conditions: for EC50: chimeric receptor transactivation, read-out: RAR Trans. EC50 β; for Emax: percentage compared to the standard compound, read-out: RAR Trans. efficacy (number in parentheses) β
T2 sequence (P10826 183-417 limits assumed): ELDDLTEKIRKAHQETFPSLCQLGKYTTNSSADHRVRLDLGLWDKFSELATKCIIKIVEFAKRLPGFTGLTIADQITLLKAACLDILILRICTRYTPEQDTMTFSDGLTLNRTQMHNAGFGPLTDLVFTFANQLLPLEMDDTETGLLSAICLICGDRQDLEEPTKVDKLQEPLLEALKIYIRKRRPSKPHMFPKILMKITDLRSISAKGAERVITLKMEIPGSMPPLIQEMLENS
Source text: (§2) Specifically, one such assay is a chimeric receptor transactivation assay which tests for agonist-like activity in the R RAPE and RAR7 receptor subtypes, and which is based on work published by Feigner, P. L. and Holm, M (1989) Focus, 112 is described in detail in U.S. Pat. No. 5,455,265. The specification of U.S. Pat. No. 5,455,265 is hereby expressly incorporated by reference. A holoreceptor transactivation assay and a ligand binding assay which measure the antagonist/agonist like activity of the compounds of the invention, or their ability to bind to the several retinoid receptor subtypes, respectively, are described in published PCT Application No. WO WO93/11755 (particularly on pages 30-33 and 37-41) published on Jun. 24, 1993, the specification of which is also incorporated herein by reference. A detailed experimental procedure for holoreceptor transactivations has been described by Heyman et al. Cell 68, 397-406, (1992); Allegretto et al. J. Biol. Chem. 268, 26625-26633, and Mangelsdorf et al. The Retinoids: Biology, Chemistry and Medicine, pp 319-349, Raven Press Ltd., New York, which are expressly incorporated herein by reference. The results obtained in this assay are expressed in EC50 numbers, as they are also in the chimeric receptor transactivation assay. The results of the ligand binding assay are expressed in Ki numbers. (See Cheng et al. Biochemical Pharmacology Vol. 22 pp 3099-3108, expressly incorporated herein by reference.)
(§3) Efficacy in a transactivation assay is expressed as a percentage of the maximum potency attained by the compound compared to a standard which, in this case, is the compound named (2E,4E,1′S,2′S)-3-methyl-5-[2′-methyl-2′-(5,5,8,8-tetramethyl-5,6,7,8-tetrahydro-naphthalen-2-yl)-cyclopropyl]-penta-2,4-dienoic acid. This standard compound is described in U.S. Pat. No. 6,114,533.
(§4) The specification of this application for patent is organized in several sections in accordance with structural Formulas A through F each of which discloses a group of preferred compounds within the scope of the invention. Tables that disclose the activity of certain exemplary compounds of the invention in the above-described RXR receptor transactivation and binding assays are found in the corresponding sections. […] The transactivation data pertaining to the activation of RXR receptors were obtained in the holoreceptor assay.
as §1

[3] = biological target: T3, RARα (Homo sapiens, UniProt P10276); assay: ligand binding assay, RARα; conditions: for Ki: read-out: RAR Bind. Ki α; for Kd: Table 9 (Formula F), read-out: RAR α Kd
T3 sequence (P10276 1-462): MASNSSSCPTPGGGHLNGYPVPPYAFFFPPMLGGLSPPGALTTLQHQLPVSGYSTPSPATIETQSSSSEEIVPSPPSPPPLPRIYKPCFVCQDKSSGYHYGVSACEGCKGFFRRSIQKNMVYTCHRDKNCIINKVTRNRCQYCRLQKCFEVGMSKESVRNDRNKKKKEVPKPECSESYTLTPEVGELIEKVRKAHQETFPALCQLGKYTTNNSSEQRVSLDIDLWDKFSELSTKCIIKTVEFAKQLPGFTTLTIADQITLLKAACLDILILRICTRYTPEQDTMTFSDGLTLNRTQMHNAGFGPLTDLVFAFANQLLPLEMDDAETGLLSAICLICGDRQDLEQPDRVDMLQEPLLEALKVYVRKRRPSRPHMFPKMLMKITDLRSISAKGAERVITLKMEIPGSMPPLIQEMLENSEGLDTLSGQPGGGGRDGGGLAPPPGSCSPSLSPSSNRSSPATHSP
Outline: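 Binding of compounds to several retinoid receptor subtypes was measured. Results are given as Ki values in nanomolar concentration, derived per Cheng et al.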

[4] = biological target: T4, RARα (Homo sapiens, UniProt P10276); assay: chimeric receptor transactivation assay, RARα; format: cell-based; conditions: for EC50: chimeric receptor transactivation, read-out: RAR Trans. EC50 α; for Emax: percentage compared to the standard compound, read-out: RAR Trans. efficacy (number in parentheses) α
T4 sequence (P10276 183-417 limits assumed): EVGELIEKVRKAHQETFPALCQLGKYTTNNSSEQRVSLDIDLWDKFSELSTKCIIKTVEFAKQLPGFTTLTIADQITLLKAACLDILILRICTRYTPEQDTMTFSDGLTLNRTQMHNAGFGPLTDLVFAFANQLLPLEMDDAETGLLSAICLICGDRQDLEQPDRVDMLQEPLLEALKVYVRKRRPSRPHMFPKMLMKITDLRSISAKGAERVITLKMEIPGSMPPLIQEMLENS
Source text: as §2, §3, §4, §1

[5] = biological target: T5, RXRγ (UniProt P28705); assay: ligand binding assay, RXRγ; conditions: Table 9 (Formula F); read-out: RXR γ Kd
T5 sequence (P28705 1-463): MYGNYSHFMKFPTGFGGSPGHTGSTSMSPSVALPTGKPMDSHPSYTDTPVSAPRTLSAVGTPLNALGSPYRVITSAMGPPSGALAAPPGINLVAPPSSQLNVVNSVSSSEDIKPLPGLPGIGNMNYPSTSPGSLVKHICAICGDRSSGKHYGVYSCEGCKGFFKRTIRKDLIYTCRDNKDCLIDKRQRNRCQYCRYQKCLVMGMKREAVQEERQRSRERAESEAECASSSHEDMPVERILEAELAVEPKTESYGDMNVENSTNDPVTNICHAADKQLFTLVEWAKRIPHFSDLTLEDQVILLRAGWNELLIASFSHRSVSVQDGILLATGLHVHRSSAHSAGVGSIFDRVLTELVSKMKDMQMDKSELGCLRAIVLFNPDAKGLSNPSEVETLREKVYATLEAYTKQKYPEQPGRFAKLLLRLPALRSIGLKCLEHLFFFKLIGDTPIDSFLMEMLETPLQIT
Source text: as §2, §1

| Structure (SMILES) | EC50 [1] [nM] | EC50 [2] [nM] | Ki [3] [nM] | EC50 [4] [nM] | Emax [4] [%] | Kd [5] [nM] | Emax [2] [%] | Kd [3] [nM] |
| --- | --- | --- | --- | --- | --- | --- | --- | --- |
| CCOc1cc2c(cc1\C(C)=C(F)/C=C/C(C)=C/C(=O)O)C=CCC2(C)C [Compound A-76, (2E,4E,6E)-7-(3-Ethoxy-5,5-dimethyl-5,6-dihydro-naphthalen-2-yl)-6-fluoro-3-methyl-octa-2,4.6-trienoic acid] | > 10000 | > 10000 | 1600 | – | – | – | – | – |
| CCOc1cc2c(cc1\C(CC)=C(F)/C=C/C(C)=C/C(=O)O)C=CCC2(C)C [Compound A-77] | 2 | – | 301 | – | – | – | – | – |
| CCOc1c(\C(CC)=C(F)/C=C/C(C)=C/C(=O)O)cc2c(c1Br)C(C)(C)CC=C2C(C)CC (stereo not shown) [Compound A-176, (2E,4E,6E)-7-(4-Bromo-8-sec-butyl-3-ethoxy-5,5-methyl-5,6-dihydro-naphthalen-2-yl)-6-fluoro-3-methyl-nona-2,4,6-trienoic acid] | – | 14 | – | – | – | 122 | 19 | 32 |

More lines, in order of falling EC50 [2], values ahead:

| EC50 [1] [nM] | EC50 [2] [nM] | Ki [3] [nM] | EC50 [4] [nM] | Emax [4] [%] | Kd [5] [nM] | Emax [2] [%] | Kd [3] [nM] | Structure (SMILES) |
| --- | --- | --- | --- | --- | --- | --- | --- | --- |
| > 10000 | 9 | – | 1 | 8 | 61 | 26 | 9.9 | CCOc1c(\C(CC)=C(F)/C=C/C(C)=C/C(=O)O)cc2c(c1Cl)C(C)(C)CC=C2C(C)C [Compound A-178, (2E,4E,6E)-7-(4-Chloro-3-ethoxy-8-isopropyl-5,5-dimethyl-5,6-dihydronaphthalen-2-yl)-6-fluoro-3-methyl-nona-2,4,6-trienoic acid] |
| – | 2 | – | 3 | 13 | 112 | 12 | 29 | CCOc1c(\C(=C(F)/C=C/C(C)=C/C(=O)O)C(C)C)cc2c(c1Br)C(C)(C)CC=C2C(C)C [Compound A-171, (2E,4E,6E)-7-(4-Bromo-3-ethoxy-8-isopropyl-5,5-dimethyl-5,6-dihydro-naphthalen-2-yl)-6-fluoro-3.8-dimethyl-nona-2.4,6-trienoic acid] |
